Results from patent US8475814B2 (priority 2003, dated 2013).

What was measured:
[1] = Example 1: percutaneous [3H]-4-hydroxy tamoxifen delivery, radioactivity in breast tissue and blood of breast cancer patients; type: in vivo, human
Experimental: The patients received [^3H]-labeled drug applied directly on the affected breasts at specified intervals ranging from 12 hours to 7 days before surgery to excise diseased tissue. Breast tissue from three regions: the tumor, tissue immediately surrounding the tumor, and normal tissue, was excised and immediately frozen in liquid nitrogen. Additionally, plasma and urine samples were obtained at scheduled intervals and frozen until analysis.

[2] = Example 3: plasma pharmacokinetics of 4-hydroxy tamoxifen gel in healthy premenopausal women; type: in vivo, human; settings: for t1/2 (Range): 57 mg/100 g gel, last administration
Experimental: Each participant applied the gel daily for the duration of two menstrual cycles.
At the end of a menstrual cycle, each patient received a single dose, after which serial blood samples were collected at 0, 0.5, 1, 1.5, 2, 3, 4, 6, 12, 18, 24, 36, 48, and 72 hours.
On the first day of the following menstruation, treatment, which consisted of daily application of the gel over two menstrual cycles, began. Blood samples were collected 24 hours following the morning application of gel on days 7, 20 and 25 of the first and second cycles. On the last day of administration, day 25 of the second menstrual cycle, serial blood samples were collected prior to application and at 0.5, 1, 1.5, 2, 3, 4, 6, 12, 18, 24, 36, 48, and 72 hours after application of the gel.

[3] = system: Ki67 antigen (tumor tissue proliferation index); experiment: Example 4: Ki67 labeling index in breast tumor tissue; type: in vivo, human; settings: for mean Ki-67 LI scores after treatment compared to the untreated group: adjusted for baseline, P=0.0054
From the text: Participants in the study were postmenopausal women diagnosed with estrogen receptor positive invasive breast cancer, as determined by Trucut biopsy. Criteria for enrollment included age >50 years, histologically confirmed T1 or T2 estrogen receptor positive primary breast cancer, and fit for surgery within 1 month of the biopsy. Patients with inflammatory cancer, known metastasis or lymph node involvement were excluded as were patients with previous radiotherapy or chemotherapy and ongoing hormone replacement therapy (a minimum washout period of 8 days was observed before the Tru-cut biopsy). Other exclusion criteria were a history of thrombophlebitis requiring anticoagulant treatment, retinopathy, cutaneous allergy to alcohol or mammary dermatitis contraindicating the application of a gel.
Patients were scheduled for tumor resection surgery with curative intent between day 15 and day 22 after the start of treatment. On the day prior to surgery, a blood sample was also obtained for determination of 4-OHT concentrations. […]
Ki67 and Proliferating Cell Nuclear Antigen (PCNA) labeling indices (LI) were assessed on paraffin embedded sections of the pre- and post-treatment tissue specimens. The Ki67 antigen was assessed using the monoclonal antibody MIB 1 (DAKO, Denmark) as used in routine conditions in pathology. […] Six serial sections were analyzed per case in order to standardize sampling. […] For each preparation, optical density (OD) thresholds were determined using real microscopic images of the analyzed field as reference. […] Twenty fields were analyzed for each section. Stained nuclear surface was determined (segmentation and thresholding) and a LI scored (stained cells/counterstained elements). […] Control of immunostaining quantitative analysis and reproducibility of the procedure were performed: —by comparison to iterative measurements done on the same preparations, —by comparison to measurements compiled on six sequential sections of the same specimen. […] Results were expressed as LI.

[4] = Example 4: 4-OHT assay in plasma, tumor tissue and normal tissue (GC-MS NICI); type: in vivo, human; settings: 2-3 weeks
From the text: Patients were scheduled for tumor resection surgery with curative intent between day 15 and day 22 after the start of treatment. On the day prior to surgery, a blood sample was also obtained for determination of 4-OHT concentrations. On the day of surgery, patients were reassessed for concomitant therapy, concomitant conditions, hematology, biochemistry, plasma 4-OHT, estrone (E1), and estradiol (E2) concentrations.
Concentrations of 4-OHT in plasma, tumor tissue, and normal tissue were performed using Gas Chromatography (GC) combined with Mass Spectrometry (MS) used in the Negative Ion Chemical Ionization-mode (NICI) (Girault, 1993). The quantification limits of the method were 5 pg/ml for the plasma and 50 pg/g for tissue samples respectively. Tumor extracts and normal breast tissue obtained at the time of surgery (after treatment) were stored in liquid nitrogen until subsequent assay of 4-OHT.

estrone sulphatase = molecular target: T1, estrone sulphatase (Homo sapiens, UniProt P08842); settings: mammary cancer cell lines; cited from earlier work
T1 construct: estrone sulphatase activity in mammary cancer cell lines
T1 sequence (P08842 22-583): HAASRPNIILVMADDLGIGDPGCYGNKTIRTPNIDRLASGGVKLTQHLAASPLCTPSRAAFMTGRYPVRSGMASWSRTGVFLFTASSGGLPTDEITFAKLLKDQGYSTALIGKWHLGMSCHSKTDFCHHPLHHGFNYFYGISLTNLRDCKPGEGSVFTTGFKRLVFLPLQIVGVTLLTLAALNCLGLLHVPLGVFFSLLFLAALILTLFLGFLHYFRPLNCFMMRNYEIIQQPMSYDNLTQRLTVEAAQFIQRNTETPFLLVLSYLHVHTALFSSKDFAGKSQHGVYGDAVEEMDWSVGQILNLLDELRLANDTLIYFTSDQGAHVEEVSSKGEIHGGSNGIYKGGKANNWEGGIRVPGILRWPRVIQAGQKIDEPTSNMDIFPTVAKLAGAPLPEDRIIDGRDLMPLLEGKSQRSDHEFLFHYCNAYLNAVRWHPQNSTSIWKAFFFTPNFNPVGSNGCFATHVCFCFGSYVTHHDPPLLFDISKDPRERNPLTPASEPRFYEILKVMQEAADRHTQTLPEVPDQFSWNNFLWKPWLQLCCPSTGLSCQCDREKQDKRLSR

estrogen receptors = settings: in vitro; cited from earlier work
[5] = system: p53(−) normal human mammary epithelial cells; settings: cited from earlier work
[6] = cited from earlier work
[7] = 12 hr after percutaneous Z-[3H]-4-hydroxy tamoxifen
[8] = 24 hours after percutaneous [3H]-4-hydroxy tamoxifen
[9] = 24 hr after percutaneous Z-[3H]-4-hydroxy tamoxifen
[10] = 36 hr after percutaneous Z-[3H]-4-hydroxy tamoxifen
[11] = Day 4 after percutaneous Z-[3H]-4-hydroxy tamoxifen
[12] = Day 7 after percutaneous Z-[3H]-4-hydroxy tamoxifen

% Metabolites in Breast Tissue [1, 11] | % Metabolites in Breast Tissue [1, 12] | Structure (SMILES) | mean Ki-67 LI scores after treatment compared to the untreated group [3] | effect on estrone sulphatase activity (estrone sulphatase) | % Metabolites in Breast Tissue ([1]; human, in vivo) | % Metabolites in Breast Tissue [1, 7] | % of radioactivity in blood [1, 8] | % Metabolites in Breast Tissue [1, 9] | % Metabolites in Breast Tissue [1, 10] | further results
20% | 16% | CCC(=C(c1ccc(O)cc1)c1ccc(OCCNC)cc1)c1ccccc1 [N-Desmethyl-4-Hydroxy Tamoxifen] | – | – | – | 2% | 18% | 4% | 14% | –
<1% | 2% | CC/C(=C(\c1ccccc1)c1ccc(OCCN(C)C)cc1)c1ccccc1 [tamoxifen, reference compound] | significantly lower | little or no effect | – | – | – | – | – | time of plateau of radioactivity in blood ([1]; percutaneous application): 2 days; retention in the breast ([1]; percutaneous application to the affected breast): shorter and far weaker; initiation of apoptosis [5]: initiates apoptosis; rat liver carcinogenicity [6]: potent rat liver carcinogen

The remaining lines, values behind:

Structure (SMILES) | % Metabolites in Breast Tissue [1, 11] | % Metabolites in Breast Tissue [1, 12] | mean Ki-67 LI scores after treatment compared to the untreated group [3] | effect on estrone sulphatase activity (estrone sulphatase) | % Metabolites in Breast Tissue ([1]; human, in vivo) | % Metabolites in Breast Tissue [1, 7] | % of radioactivity in blood [1, 8] | % Metabolites in Breast Tissue [1, 9] | % Metabolites in Breast Tissue [1, 10] | further results
CCC(=C(c1ccc(O)cc1)c1ccc(OCCN(C)C)cc1)c1ccccc1 [4-hydroxy tamoxifen, 1-[4-(2-N-dimethylaminoethoxy)phenyl]-1-(4-hydroxyphenyl)-2-phenylbut-1-ene] | – | – | significantly lower | significant inhibitory effect | – | – | – | – | – | % of radioactivity in blood ([1]; human, in vivo): 68%; radioactivity administered that showed in the blood ([1]; human, in vivo): 0.5%; retention in the breast ([1]; human, in vivo): approximately 4 days; time of plateau of radioactivity in blood ([1]; human, in vivo): 4 to 6 days; t1/2 (Range) ([2]; 1 mg/day): (58-118) hr; t1/2 (Range) ([2]; 2 mg/day): (49-101) hr; plasma concentrations after the last gel application ([2]; 72 hours after the last gel application): remained detectable; plasma concentrations of 4-hydroxy tamoxifen after a single dose ([2]; single 0.5 mg dose): did not produce detectable plasma concentrations; patients with detectable plasma concentrations (>5 pg/mL) ([2]; single dose of 1 mg): 6 of 12; plasma concentrations of 4-hydroxy tamoxifen versus typical estradiol concentrations ([2]; topical application, 0.5-2 mg/day): < 0.08 ng/mL; dose dependence of mean Ki-67 LI score after treatment ([3]; 0.5, 1.0, 2.0 mg/d): dose-dependent; 4-OHT concentration in Tumor, Median (min:max) ([4]; gel 0.5 mg/d): 687 pg/g; 4-OHT concentration in Tumor, Median (min:max) ([4]; gel 1.0 mg/d): 1377 pg/g; 4-OHT concentration in Tumor, Median (min:max) ([4]; gel 2.0 mg/d): 1698 pg/g; potency as measured by binding affinity to estrogen receptors, compared with tamoxifen (estrogen receptors): more potency than tamoxifen
CCC(=C(c1ccc(O)cc1)c1ccc(OCCN(C)C)cc1)c1ccccc1 (single isomer, unassigned) [E isomer] | – | – | – | – | 33% | – | – | – | – | –
CCC(=C(c1ccc(O)cc1)c1ccc(O)cc1)c1ccccc1 [Bisphenol] | 8% | 8% | – | – | – | 1% | 11% | 2% | 3% | –
CC/C(=C(\c1ccc(O)cc1)c1ccc(OCCN(C)C)cc1)c1ccccc1 [Z-4-hydroxy tamoxifen] | – | – | – | – | 32% | – | – | – | – | –
